# Laboratory results from article PMC4229968, “The Inhibition of the Components from Shengmai Injection towards UDP-Glucuronosyltransferase” (Evidence-based Complementary and Alternative Medicine : eCAM, 2014).
# Like-named read-outs stand apart in the source and are kept apart here.
# Experiments:
# Assay type in all cases: in vitro ADME
# UGT1A3 = biological target: T1, UGT1A3 (Homo sapiens, UniProt P35503); experiment: Recombinant UGT1A3-catalyzed 4-MU glucuronidation inhibition; conditions: pH 7.4, probe 4-methylumbelliferone (4-MU), UGT1A3, 100 μM of compound, 4-MU substrate, read-out: residual activity
# T1 construct: purchased BD Gentest Corp. (Woburn, MA, USA); host or cells: baculovirus-infected insect cells
# T1 sequence (P35503 29-534): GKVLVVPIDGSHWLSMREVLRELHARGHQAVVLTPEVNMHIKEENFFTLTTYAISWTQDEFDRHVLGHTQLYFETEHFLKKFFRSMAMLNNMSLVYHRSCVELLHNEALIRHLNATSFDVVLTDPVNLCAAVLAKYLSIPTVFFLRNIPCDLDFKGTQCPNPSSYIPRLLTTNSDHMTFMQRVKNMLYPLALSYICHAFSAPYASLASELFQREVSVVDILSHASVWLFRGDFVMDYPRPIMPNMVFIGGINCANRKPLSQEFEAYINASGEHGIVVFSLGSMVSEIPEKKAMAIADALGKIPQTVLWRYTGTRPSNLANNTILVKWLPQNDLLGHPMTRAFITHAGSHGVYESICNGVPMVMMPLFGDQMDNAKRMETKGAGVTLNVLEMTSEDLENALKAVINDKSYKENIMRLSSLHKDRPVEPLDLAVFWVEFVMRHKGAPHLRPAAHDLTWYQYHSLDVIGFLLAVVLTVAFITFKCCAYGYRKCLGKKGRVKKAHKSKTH
# From the text: (§1) 4-Methylumbelliferone (4-MU), 4-methylumbelliferone-β-D-glucuronide (4-MUG), Tris-HCl, 7-hydroxycoumarin, and uridine-5′-diphosphoglucuronic acid (UDPGA) (trisodium salt) were purchased from Sigma-Aldrich (St. Louis, MO). Recombinant human UGT isoforms (UGT1A1, UGT1A3, UGT1A4, UGT1A6, UGT1A7, UGT1A8, UGT1A9, UGT1A10, UGT2B4, UGT2B7, and UGT2B15) expressed in baculovirus-infected insect cells were obtained from BD Gentest Corp. (Woburn, MA, USA). Ophiopogonin D (OD), ophiopogonin D′ (OD′), methylophiopogonanone A (MA), methylophiopogonanone B (MB), and ruscorectal (RU) were purchased from Sichuan Weikeqi Biotechnology Company (Chengdu, Sichuan, China). The purity of these compounds was above 95%. All other reagents were of HPLC grade or of the highest grade commercially available.
# (§2) 4-MU, the nonspecific probe substrate for all the UGT isoforms except UGT1A4, was used in the present study to initially screen the inhibition potential of maidong's components towards UGT isoforms as previously reported. In brief, the incubation system (total volume = 200 μL) consisted of recombinant UGTs, 5 mM UDPGA, 5 mM MgCl2, 50 mM Tris-HCl (pH = 7.4), and 4-MU in the absence or presence of different concentrations of maidong's components. The compounds were dissolved in DMSO, and the final concentration of DMSO was below 0.5% (v/v). The used incubation time and protein concentration were previously determined to ensure the reaction rate within the linear range. The 4-MU concentration was equal to known K m or S 50 values for each UGT isoform. After 5 min preincubation at 37°C, the incubation reaction was initiated via adding UDPGA to the mixture system. The reactions were quenched by adding 100 μL acetonitrile with 7-hydroxycoumarin (100 μM) as internal standard. Centrifuged at 20000 ×g for 10 min, an aliquot of supernatant was transferred to an autoinjector vial for HPLC analysis. The HPLC system (Shimadzu, Kyoto, Japan) contained a SCL-10A system controller, two LC-10AT pumps, a SIL-10A autoinjector, and a SPD-10AVP UV detector. Chromatographic separation was carried out using a C18 column (4.6 × 200 mm, 5 μm, Kromasil) at a flow rate of 1 mL/min and UV detector at 316 nm. The mobile phase consisted of acetonitrile (A) and H2O containing 0.5% (v/v) formic acid (B). The following gradient condition was used: 0–15 min, 95–40% B; 15–20 min, 10% B; 20–30 min, 95% B.
# UGT1A6 = biological target: T2, UGT1A6 (Homo sapiens, UniProt P19224); experiment: Recombinant UGT1A6-catalyzed 4-MU glucuronidation inhibition; conditions: for activity at 100 µM / inhibition at 100 µM: human, pH 7.4, probe 4-methylumbelliferone (4-MU); for activity at 100 µM: UGT1A6, 100 μM of compound, 4-MU substrate, read-out: residual activity; for inhibition type: UGT1A6, Dixon and Lineweaver-Burk plots; for inhibition at 100 µM: UGT1A6, at 100 μM, read-out: inhibition percent
# T2 construct: purchased BD Gentest Corp. (Woburn, MA, USA); host or cells: baculovirus-infected insect cells
# T2 sequence (P19224 27-532): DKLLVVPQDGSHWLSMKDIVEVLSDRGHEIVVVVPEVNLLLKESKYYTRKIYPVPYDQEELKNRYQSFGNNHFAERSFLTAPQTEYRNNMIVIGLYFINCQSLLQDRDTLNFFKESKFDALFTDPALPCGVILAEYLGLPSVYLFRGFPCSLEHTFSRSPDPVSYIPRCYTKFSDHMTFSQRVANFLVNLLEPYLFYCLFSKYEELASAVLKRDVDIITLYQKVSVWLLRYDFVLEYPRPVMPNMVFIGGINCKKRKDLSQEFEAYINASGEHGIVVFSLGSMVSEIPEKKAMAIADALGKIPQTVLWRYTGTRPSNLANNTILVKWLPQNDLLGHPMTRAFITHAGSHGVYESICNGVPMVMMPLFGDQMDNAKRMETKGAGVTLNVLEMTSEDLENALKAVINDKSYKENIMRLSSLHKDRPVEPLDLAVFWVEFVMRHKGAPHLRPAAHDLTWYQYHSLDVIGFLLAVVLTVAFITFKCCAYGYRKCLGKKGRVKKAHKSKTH
# From the text: as §1, §2
# To determine the inhibition kinetic type and parameters (K i), the reaction velocity (V) was determined at multiple concentrations of maidong's components and 4-MU (or TFP). Dixon plot and Lineweaver-Burk plot were used to fit the data. The inhibition kinetic type was evaluated through determining the intersection point in the Dixon and Lineweaver-Burk plots.
# K m value is the substrate concentration in which the velocity reached half of the maximum velocity (V max) of the reaction. K i value is the inhibition constant.
# UGT2B15 = biological target: T3, UGT2B15 (Homo sapiens, UniProt P54855); experiment: Recombinant UGT2B15-catalyzed 4-MU glucuronidation inhibition; conditions: pH 7.4, probe 4-methylumbelliferone (4-MU), UGT2B15, 100 μM of compound, 4-MU substrate, read-out: residual activity
# T3 construct: purchased BD Gentest Corp. (Woburn, MA, USA); host or cells: baculovirus-infected insect cells
# T3 sequence (P54855 24-530): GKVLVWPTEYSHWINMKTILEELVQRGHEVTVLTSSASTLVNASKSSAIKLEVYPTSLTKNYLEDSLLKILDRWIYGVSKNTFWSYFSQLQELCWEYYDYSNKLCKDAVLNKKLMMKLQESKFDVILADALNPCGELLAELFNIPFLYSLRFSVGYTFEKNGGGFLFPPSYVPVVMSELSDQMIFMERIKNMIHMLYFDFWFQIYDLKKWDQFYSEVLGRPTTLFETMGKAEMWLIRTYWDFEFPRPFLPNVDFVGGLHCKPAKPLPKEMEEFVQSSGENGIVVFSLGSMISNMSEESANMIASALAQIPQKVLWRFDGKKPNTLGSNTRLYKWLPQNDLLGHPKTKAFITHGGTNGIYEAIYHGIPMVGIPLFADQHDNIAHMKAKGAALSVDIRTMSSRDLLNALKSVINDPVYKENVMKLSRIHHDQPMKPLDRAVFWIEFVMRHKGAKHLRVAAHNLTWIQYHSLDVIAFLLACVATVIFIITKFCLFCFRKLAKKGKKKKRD
# From the text: as §1, §2
SMILES,activity at 100 µM (UGT1A3),activity at 100 µM (UGT1A6),activity at 100 µM (UGT2B15),Ki (UGT1A6),inhibition type (UGT1A6),inhibition at 100 µM (UGT1A6),"Ki (UGT1A6; UGT1A6-catalyzed 4-MU glucuronidation, read-out: inhibition kinetic parameter (Ki))"
"Cc1c(O)c(C)c2c(c1O)C(=O)[C@H](Cc1ccc3c(c1)OCO3)CO2 [MA, methylophiopogonanone A]",35.5 ± 6.1%,67 ± 1.7%,23.8 ± 2.8%,–,–,–,–
"COc1ccc(C[C@@H]2COc3c(C)c(O)c(C)c(O)c3C2=O)cc1 [MB, methylophiopogonanone B]",84.2 ± 22.8%,65.3 ± 2%,56.1 ± 9.8%,–,–,–,–
"C[C@@H]1CC[C@@]2(OC1)O[C@H]1C[C@H]3[C@@H]4CC=C5C[C@@H](O)C[C@@H](O[C@@H]6O[C@H](C)[C@H](O)[C@H](O[C@@H]7OC[C@@H](O)[C@H](O)[C@H]7O)[C@H]6O[C@@H]6O[C@@H](C)[C@H](O)[C@@H](O)[C@H]6O)[C@]5(C)[C@H]4CC[C@]3(C)[C@H]1[C@@H]2C [OD, ophiopogonin D]",40.7 ± 0.3%,12.8 ± 3.1%,36.9%,20.6 µM,noncompetitively inhibited,87.2%,–
"C[C@@H]1CC[C@@]2(OC1)O[C@H]1C[C@H]3[C@@H]4CC=C5C[C@@H](O[C@@H]6O[C@H](CO)[C@@H](O)[C@H](O[C@@H]7OC[C@@H](O)[C@H](O)[C@H]7O)[C@H]6O[C@@H]6O[C@@H](C)[C@H](O)[C@@H](O)[C@H]6O)CC[C@]5(C)[C@H]4CC[C@]3(C)[C@H]1[C@@H]2C [OD′, ophiopogonin D′]",36.5 ± 2.5%,12.1 ± 1.9%,35.5 ± 1.7%,–,noncompetitively inhibited,87.9%,5.3 µM
"CC1CCC2(OC1)OC1CC3C4CC=C5CC(O)CC(O)C5(C)C4CCC3(C)C1C2C (stereo not drawn) [RU, ruscorectal]",37.2 ± 18.2%,65.9 ± 11.6%,55.5 ± 19.6%,–,–,–,–
